pIC50: −log10 of the molar value.
biological target: T1, Androgen receptor (AR) (Homo sapiens, UniProt P10275); assay: Androgen receptor (AR) reporter gene assay (luciferase); assay type: cell-based; conditions: AR+ARE/Luc HEK293T cells, stimulated with 11-KDHT, 24h incubation, Bright-Lite luminescence; read-out: HEK293 Luc IC50
T1 construct: expressed in transfected cells; host or cells: HEK293T (AR+ARE/Luc)
T1 sequence (P10275 1-920): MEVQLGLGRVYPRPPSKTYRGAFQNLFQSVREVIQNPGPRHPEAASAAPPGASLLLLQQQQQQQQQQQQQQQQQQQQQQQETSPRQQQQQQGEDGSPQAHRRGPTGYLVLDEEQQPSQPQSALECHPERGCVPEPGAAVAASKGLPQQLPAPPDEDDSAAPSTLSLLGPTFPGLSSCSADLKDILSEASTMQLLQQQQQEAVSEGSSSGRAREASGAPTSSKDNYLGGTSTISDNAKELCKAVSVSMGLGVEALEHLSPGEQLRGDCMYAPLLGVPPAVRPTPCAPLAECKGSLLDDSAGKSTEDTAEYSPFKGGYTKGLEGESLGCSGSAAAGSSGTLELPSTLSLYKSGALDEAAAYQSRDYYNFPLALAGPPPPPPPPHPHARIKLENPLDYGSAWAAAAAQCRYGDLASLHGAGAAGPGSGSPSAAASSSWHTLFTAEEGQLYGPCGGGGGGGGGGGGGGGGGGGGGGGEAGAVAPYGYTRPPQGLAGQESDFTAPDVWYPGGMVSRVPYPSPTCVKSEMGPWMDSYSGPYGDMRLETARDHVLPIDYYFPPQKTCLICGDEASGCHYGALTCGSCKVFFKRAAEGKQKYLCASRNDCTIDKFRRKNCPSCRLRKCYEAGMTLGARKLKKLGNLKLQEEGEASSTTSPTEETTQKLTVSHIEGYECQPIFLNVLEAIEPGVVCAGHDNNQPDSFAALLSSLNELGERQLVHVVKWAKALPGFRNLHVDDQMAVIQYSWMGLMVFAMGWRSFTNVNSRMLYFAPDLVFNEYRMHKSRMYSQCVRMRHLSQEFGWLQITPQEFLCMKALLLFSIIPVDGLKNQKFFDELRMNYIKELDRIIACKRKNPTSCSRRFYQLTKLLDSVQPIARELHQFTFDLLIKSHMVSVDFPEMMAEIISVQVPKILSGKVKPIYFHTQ
Procedure: Androgen receptor (AR) reporter gene assay
Experimental reagents: 11-Ketodihydrotestosterone (11-KDHT) was purchased from MCE (cat.HY-135794); Enzalutamide (MDV3100) was purchased from Selleck (cat.S1250); Bright-Lite Luciferase Assay kit was purchased from Vazyme (cat.DD1204-01);
• 1. dissolve the described compounds in 100% DMSO at a final concentration of 10 mM. 100 nL each of 400X compound to be tested and 400X 11-KDHT (40 nM) were added to a 384-well assay plate with Echo, followed by 20 µL of complete medium, and centrifuged at 1000 rpm for 1 min, and oscillated for 20-30 min at room temperature. • 2. 20 µL of AR+ARE/Luc HEK293T cells (10,000 cells/well) were inoculated into the assay plate containing the compounds and 11-KDHT, and centrifuged at 1000 rpm for 1 min. The assay plate was incubated in a 37 °C CO2 incubator for 24h. • 3. 40 µL of Bright-Lite assay reagent was transferred to each well of the assay plate, centrifuged at 1000 rpm for 1 min, and shaken for 2 min at room temperature protected from light. Luminescence values (RLU) were measured using Envision. Based on the results, the IC50 values of the compounds described were calculated. Table 1 HEK293-Luc% inhibition IC50 of representative compounds

Row | Structure (SMILES) | pIC50
1 | N#Cc1cc2c(c(Cl)c1OCCCl)CCCC2c1cnc2[nH]nc(C3CCOCC3)c2c1 (stereo not shown) [HANT-220, 4-chloro-3-(2-chloroethoxy)-8-(3-(tetrahydro-2H-pyran-4-yl)-1H-pyrazolo[3,4-b]pyridin-5-yl)-5,6,7,8-tetrahydronaphthalene-2-cyanide] | < 5.70
2 | Oc1ccc(C2CCCc3c2cc(Cl)c(OCCCl)c3Cl)cc1 (stereo not shown) [HANT-336A, 4-(5,7-dichloro-6-(2-chloroethoxy)-1,2,3,4-tetrahydronaphthalen-1-yl)phenol] | 6.00 to 6.30
3 | N#Cc1cc2c(c(Cl)c1OCCCl)CCCC2c1ccc2c(c1)C(=O)NC2=O (stereo not shown) [HANT-977] | 6.30 to 9.00
4 | N#Cc1cc2c(c(Cl)c1OCCCl)CCCC2Nc1ccc2[nH]ncc2c1 (stereo not shown) [HANT-225, 8-((1H-indazol-5-yl)amino)-4-chloro-3-(2-chloroethoxy)-5,6,7,8-tetrahydronaphthalene-2-carb onitrile] | 6.30 to 9.00
5 | ClCCOc1c(Cl)cc2c(c1Cl)CCCN2c1ccc2[nH]ncc2c1 [HANT-127, 5,7-dichloro-6-(2-chloroethoxy)-1-(1H-indazol-5-yl)-1,2,3,4-tetrahydroquinoline] | 6.00 to 6.30
6 | N#Cc1cc2c(c(Cl)c1OCCCl)CCCC2c1ccc2[nH]ncc2c1 (stereo not shown) [HANT-144A, 4-chloro-3-(2-chloroethoxy)-8-(1H-indazol-5-yl)-5,6,7,8-tetrahydronaphthalene-2-carbonitrile] | < 5.70
7 | N#Cc1cc2c(c(Cl)c1OCCCl)CCC[C@@H]2c1cnc(N)nc1 [HANT-204A] | < 5.70
8 | Cn1c(=O)[nH]c2ccc(C3CCCc4c3cc(Cl)c(OCCCl)c4Cl)cc21 (stereo not shown) [HANT-117] | 5.70 to 6.00
9 | CCCOc1c(C#N)cc2c(c1Cl)CCCC2c1cnc2[nH]ncc2c1 (stereo not shown) [HANT-196, 4-chloro-3-propoxy-8-(1H-pyrazolo[3,4-b]pyridin-5-yl)-5,6,7,8-tetrahydronaphthalene-2-carbo nitrile] | 6.30 to 9.00
10 | N#Cc1cc2c(c(Cl)c1OCCCl)CCCC2Nc1ccc(N2CCOCC2)nc1 (stereo not shown) [HANT-170] | 6.00 to 6.30
11 | COc1ccc(C2CCCc3c2cc(C#N)c(OCCCl)c3Cl)cn1 (stereo not shown) [HANT-335] | 6.30 to 9.00
12 | ClCCOc1c(Cl)cc2c(c1Cl)CCCN2c1ccc2[nH]ncc2n1 [HANT-165, 5,7-dichloro-6-(2-chloroethoxy)-1-(1H-pyrazolo[4,3-b]pyridin-5-yl)-1,2,3,4-tetrahydroquinoline] | < 5.70
13 | ClCCOc1c(Cl)cc2c(c1Cl)CCC[C@H]2c1ccc2[nH]ncc2c1 [HANT-118] | 6.30 to 9.00
14 | Oc1ccc(C2CCCc3c2cc(Cl)c(OCCCl)c3Cl)cc1F (stereo not shown) [HANT-109] | 5.70 to 6.00
15 | Oc1ccc(C2CCCc3c2cc(Cl)c(OCCCl)c3Cl)c(F)c1 (stereo not shown) [HANT-110, 4-(5,7-dichloro-6-(2-chloroethoxy)-1,2,3,4-tetrahydronaphthalen-1-yl)-3-fluorophenol] | 6.30 to 9.00
16 | N#Cc1cc2c(c(Cl)c1OCCCl)CCCC2c1cn[nH]c1 (stereo not shown) [HANT-200] | 6.00 to 6.30
17 | N#Cc1cc2c(c(Cl)c1OCCCl)CCCC2c1cncc(N)c1 (stereo not shown) [HANT-256] | 5.70 to 6.00
18 | N#Cc1cc2c(c(Cl)c1OCCCl)CCCC2Nc1cnc2[nH]ncc2c1 (racemic) [HANT-192, 8-((1H-pyrazolo[3,4-b]pyridin-5-yl)amino)-4-chloro-3-(2-chloroethoxy)-5,6,7,8-tetrahydronaph thalene-2-carbonitrile] | 6.30 to 9.00
19 | N#Cc1cc2c(c(Cl)c1OCCCl)CCCC2c1cnc(N)cn1 (stereo not shown) [HANT-249] | 6.00 to 6.30
20 | N#Cc1cc2c(c(Cl)c1OCCCl)CCCC2c1cccnc1 (stereo not shown) [HANT-255] | 6.30 to 9.00
21 | N#Cc1cc2c(c(Cl)c1OCCCl)CCCC2c1ccc2[nH]ncc2c1 (stereo not shown) [HANT-144B, 4-chloro-3-(2-chloroethoxy)-8-(1H-indazol-5-yl)-5,6,7,8-tetrahydronaphthalene-2-carbonitrile] | 6.30 to 9.00
22 | CCCOc1c(C#N)cc2c(c1Cl)CCCC2c1cnc(N)nc1 (stereo not shown) [HANT-257] | 6.30 to 9.00
23 | N#Cc1cc2c(c(Cl)c1OCCCl)CCCC2c1cccc2cn[nH]c12 (stereo not shown) [HANT-194] | 6.30 to 9.00

Further lines, results first:

Row | pIC50 | Structure (SMILES)
24 | 6.00 to 6.30 | N#Cc1cc2c(c(Cl)c1OCCCl)CCCC2c1cc2c3c(cccc3c1)NC2=O (stereo not shown) [HANT-979, 4-Chloro-3-(2-chloroethoxy)-8-(2-oxo-1,2-dihydrobenzo[cd]indol-4-yl)-5,6,7,8-tetrahydronapht halene-2-carbonitrile]
25 | 6.30 to 9.00 | ClCCOc1c(Cl)cc2c(c1Cl)CCCC2c1ccc2[nH]ncc2c1 (stereo not shown) [HANT-100, 5-(5,7-dichloro-6-(2-chloroethoxy)-1,2,3,4-tetrahydronaphthalen-1-yl)-1H-indazole]
26 | 6.30 to 9.00 | N#Cc1cc2c(c(Cl)c1OCCCl)CCCC2Nc1ccccn1 (stereo not shown) [HANT-252]
27 | 6.30 to 9.00 | Oc1ccc(C2CCc3c2ccc(OCCCl)c3Cl)cc1 (stereo not shown) [HANT-108, 4-(4-chloro-5-(2-chloroethoxy)-2,3-dihydro-1H-inden-1-yl)phenol]
28 | 6.30 to 9.00 | N#Cc1ccc(C(=O)NC2CCCc3c2cc(C#N)c(OCCCl)c3Cl)cc1 (stereo not shown) [HANT-234]
29 | < 5.70 | N#Cc1cc2c(c(Cl)c1OCCCl)CCCC2Nc1ccncc1 (stereo not shown) [HANT-228]
30 | 6.30 to 9.00 | N#Cc1cc2c(c(Cl)c1OCCCl)CCCC2c1cnc(N)nc1 (racemic) [HANT-204]
31 | 6.30 to 9.00 | N#Cc1cc2c(c(Cl)c1OCCCl)CCC[C@H]2c1cnc(N)nc1 [HANT-204B]
32 | 6.00 to 6.30 | Oc1ccc(C2CCCc3c2cc(Cl)c(OCCCl)c3Cl)nc1 (stereo not shown) [HANT-102, 6-(5,7-dichloro-6-(2-chloroethoxy)-1,2,3,4-tetrahydronaphthalen-1-yl)pyridin-3-ol]
33 | 6.30 to 9.00 | N#Cc1cc2c(c(Cl)c1OCCCl)CCCC2NC(=O)c1ccccc1 (stereo not shown) [HANT-212]
34 | 6.30 to 9.00 | CNc1ncc(C2CCCc3c2cc(C#N)c(OCCCl)c3Cl)cn1 (stereo not shown) [HANT-247, 4-chloro-3-(2-chloroethoxy)-8-(2-(methylamino)pyrimidin-5-yl)-5,6,7,8-tetrahydronaphthalene-2-carbonitrile]
35 | 6.30 to 9.00 | N#Cc1cc2c(c(Cl)c1OCCCl)CCCC2NC(=O)c1ccc2[nH]ncc2c1 (stereo not shown) [HANT-186]
36 | 6.00 to 6.30 | N#Cc1cc2c(c(Cl)c1OCCCl)CCCC2Nc1cn[nH]c1 (stereo not shown) [HANT-239, 8-((1H-pyrazol-4-yl)amino)-4-chloro-3-(2-chloroethoxy)-5,6,7,8-tetrahydronaphthalene-2-carb onitrile]
37 | 5.70 to 6.00 | CNC(=O)c1cc2c(c(Cl)c1OCCCl)CCCC2c1cnc2[nH]ncc2c1 (stereo not shown) [HANT-183, 4-chloro-3-(2-chloroethoxy)-N-methyl-8-(1H-pyrazolo[3,4-b]pyridin-5-yl)-5,6,7,8-tetrahydrona phthalene-2-carboxamide]
38 | 6.30 to 9.00 | CCCOc1c(C#N)cc2c(c1Cl)CCCC2Nc1ccc2[nH]ncc2c1 (stereo not shown) [HANT-268, 8-((1H-indazol-5-yl)amino)-4-chloro-3-propoxy-5,6,7,8-tetrahydronaphthalene-2-carbonitrile]
39 | < 5.70 | ClCCOc1c(Cl)cc2c(c1Cl)CCCN2c1cc2cn[nH]c2cn1 [HANT-164, 5,7-dichloro-6-(2-chloroethoxy)-1-(1H-pyrazolo[3,4-c]pyridin-5-yl)-1,2,3,4-tetrahydroquinoline]
40 | 6.30 to 9.00 | N#Cc1cc2c(c(Cl)c1OCCCl)CCCC2c1cnc2[nH]nc(-c3ccncc3)c2c1 (stereo not shown) [HANT-218, 4-chloro-3-(2-chloroethoxy)-8-(3-(pyridin-4-yl)-1H-pyrazolo[3,4-b]pyridin-5-yl)-5,6,7,8-tetrah ydronaphthalene-2-carbonitrile]
